Reference: ChEMBL document CHEMBL1123515, “Bioisosteric prototype design of biaryl imidazolyl and triazolyl competitive histamine H2-receptor antagonists” (1986)
Blank lines part the entries; values can stand above or below the compound they belong to.

Key:
[1] = molecular target: Histamine H2 receptor (Cavia porcellus) (UniProt P47747); assay: Histamine H2 receptor antagonistic activity was evaluated in guinea pig atrium.; format: functional, tissue-based; conditions: Cardiac atrium
Canis familiaris [2] = assay: Maximum percent inhibition of acid output in penta gastrin-stimulated Heidenhain pouch dogs at a dose of 7 mg/kg, given intravenously (iv).; format: functional; conditions: Canis lupus familiaris
Canis familiaris [3] = assay: Effective dose on oral administration was evaluated for the inhibition of acid output in penta gastrin stimulated Heidenhain pouch dogs; format: functional; conditions: Canis lupus familiaris
Canis familiaris [4] = assay: Maximum percent inhibition of acid output in penta gastrin-stimulated Heidenhain pouch dogs at a dose of 10 mg/kg, given intravenously (iv).; format: functional; conditions: Canis lupus familiaris
Canis familiaris [5] = assay: Maximum percent inhibition of acid output in penta gastrin-stimulated Heidenhain pouch dogs at a dose of 5 mg/kg, given intravenously (iv).; format: functional; conditions: Canis lupus familiaris
Canis familiaris [6] = assay: Maximum percent inhibition of acid output in penta gastrin-stimulated Heidenhain pouch dogs at a dose of 1 mg/kg, given intravenously (iv).; format: functional; conditions: Canis lupus familiaris
Canis familiaris [7] = assay: Maximum percent inhibition of acid output in penta gastrin-stimulated Heidenhain pouch dogs at a dose of 0.5 mg/kg, given intravenously (iv).; format: functional; conditions: Canis lupus familiaris
Canis familiaris [8] = assay: Effective dose on intravenous administration was evaluated for the inhibition of acid output in penta gastrin stimulated Heidenhain pouch dogs; format: functional; conditions: Canis lupus familiaris

Sequence of Histamine H2 receptor (Cavia porcellus) (P47747 whole entry): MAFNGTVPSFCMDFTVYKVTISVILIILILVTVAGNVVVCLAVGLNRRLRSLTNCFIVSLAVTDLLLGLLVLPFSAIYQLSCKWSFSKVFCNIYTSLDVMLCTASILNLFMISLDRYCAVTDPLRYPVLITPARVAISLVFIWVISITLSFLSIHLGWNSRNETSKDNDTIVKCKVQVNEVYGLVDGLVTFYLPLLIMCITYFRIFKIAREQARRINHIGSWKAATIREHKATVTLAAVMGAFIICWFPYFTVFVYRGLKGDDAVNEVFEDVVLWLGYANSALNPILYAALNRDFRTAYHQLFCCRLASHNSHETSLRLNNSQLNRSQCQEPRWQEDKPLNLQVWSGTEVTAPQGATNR

- Kb [1]: 1240 nM
Compound: CCNc1cc(-c2n[nH]c(CC/N=C(/NC)NC#N)n2)ccn1
- inhibition in vivo at 7 mg/kg (Canis familiaris [2]): 0%

Compound: CN/C(=N\CCSCc1nc[nH]c1C)NC#N [CIMETIDINE]
- ED50 (Canis familiaris [3]): 1.32 mg/kg
- inhibition in vivo at 10 mg/kg (Canis familiaris [4]): 1.02%

Compound: CCNc1cc(-c2n[nH]c(CCCC/N=C(/NC)NC#N)n2)ccn1
- inhibition in vivo at 10 mg/kg (Canis familiaris [4]): 16%

Compound: CCNc1cc(-c2n[nH]c(CCCC/N=C(\S)NC)n2)ccn1
- inhibition in vivo at 5 mg/kg (Canis familiaris [5]): 27%

- Kb [1]: 690 nM
Compound: CCNc1cc(-c2n[nH]c(CC/N=C(\S)NC)n2)ccn1
- inhibition in vivo at 1 mg/kg (Canis familiaris [6]): 59%

- Kb [1]: 550 nM
Compound: CCNc1cc(-c2c[nH]c(CC/N=C(\S)NC)n2)ccn1
- inhibition in vivo at 5 mg/kg (Canis familiaris [5]): 47%

Compound: CCNc1cc(-c2c[nH]c(C/N=C(\NC)NC#N)n2)ccn1
- inhibition in vivo at 5 mg/kg (Canis familiaris [5]): 32%

- Kb [1]: 18 nM
Compound: Cc1ncc(-c2csc(N=C(N)N)n2)[nH]1 [ZALTIDINE]
- inhibition in vivo at 0.5 mg/kg (Canis familiaris [7]): 90%
- ED50 (Canis familiaris [3]): 0.27 mg/kg

Compound: CCNc1cc(-c2n[nH]c(N)n2)ccn1
- ED50 (Canis familiaris [8]): 0.87 mg/kg

Compound: N=C(N)Nc1nc(-c2n[nH]c(N)n2)cs1
- inhibition in vivo at 1 mg/kg (Canis familiaris [6]): 58%

Compound: C/N=C(\S)NCc1cc(-c2n[nH]c(N)n2)ccn1
- inhibition in vivo at 10 mg/kg (Canis familiaris [4]): 19%

Compound: CCNc1cc(-c2n[nH]c(CCC/N=C(/S)NC)n2)ccn1
- inhibition in vivo at 1 mg/kg (Canis familiaris [6]): 20%

Compound: N=C(N)Nc1nc(-c2c[nH]cn2)cs1
- inhibition in vivo at 1 mg/kg (Canis familiaris [6]): 95%

Compound: CCNc1cc(-c2n[nH]c(C/N=C(\NC)NC#N)n2)ccn1
- inhibition in vivo at 10 mg/kg (Canis familiaris [4]): 0%

Compound: Cc1n[nH]c(-c2csc(N=C(N)N)n2)n1
- inhibition in vivo at 1 mg/kg (Canis familiaris [6]): 50%

Compound: CCNc1cc(-c2n[nH]c(C/N=C(/S)NC)n2)ccn1
- inhibition in vivo at 10 mg/kg (Canis familiaris [4]): 48%

Compound: CCNc1cc(-c2c[nH]c(C/N=C(/S)NC)n2)ccn1
- inhibition in vivo at 5 mg/kg (Canis familiaris [5]): 54%

Compound: N=C(N)Nc1nc(-c2c[nH]c(N)n2)cs1
- inhibition in vivo at 1 mg/kg (Canis familiaris [6]): 96%

- Kb [1]: 166 nM
Compound: CNC(=C[N+](=O)[O-])NCCSCc1ccc(CN(C)C)o1
